In the kinase profiling compilation of Christmann-Franck et al. (2016):

Key:
Test in all cases: KINOMEscan competition binding
Details in all cases: compound 10.0 µM
[1] = test system: EGFR (human), P00533 [746-750 del]
[2] = test system: EGFR (human), P00533 [L861Q]
[3] = test system: PIK3CA (human), P42336 [E545K]
[4] = test system: ABL1 (human), P00519 [T315I]
[5] = test system: ABL1 (human), P00519 [E255K]
[6] = test system: FLT3 (human), P36888 [N841I]
[7] = test system: KIT (human), P10721 [D816V]
Sequence of KIT (human), P10721 [D816V] (P10721 whole entry D816V, looked up): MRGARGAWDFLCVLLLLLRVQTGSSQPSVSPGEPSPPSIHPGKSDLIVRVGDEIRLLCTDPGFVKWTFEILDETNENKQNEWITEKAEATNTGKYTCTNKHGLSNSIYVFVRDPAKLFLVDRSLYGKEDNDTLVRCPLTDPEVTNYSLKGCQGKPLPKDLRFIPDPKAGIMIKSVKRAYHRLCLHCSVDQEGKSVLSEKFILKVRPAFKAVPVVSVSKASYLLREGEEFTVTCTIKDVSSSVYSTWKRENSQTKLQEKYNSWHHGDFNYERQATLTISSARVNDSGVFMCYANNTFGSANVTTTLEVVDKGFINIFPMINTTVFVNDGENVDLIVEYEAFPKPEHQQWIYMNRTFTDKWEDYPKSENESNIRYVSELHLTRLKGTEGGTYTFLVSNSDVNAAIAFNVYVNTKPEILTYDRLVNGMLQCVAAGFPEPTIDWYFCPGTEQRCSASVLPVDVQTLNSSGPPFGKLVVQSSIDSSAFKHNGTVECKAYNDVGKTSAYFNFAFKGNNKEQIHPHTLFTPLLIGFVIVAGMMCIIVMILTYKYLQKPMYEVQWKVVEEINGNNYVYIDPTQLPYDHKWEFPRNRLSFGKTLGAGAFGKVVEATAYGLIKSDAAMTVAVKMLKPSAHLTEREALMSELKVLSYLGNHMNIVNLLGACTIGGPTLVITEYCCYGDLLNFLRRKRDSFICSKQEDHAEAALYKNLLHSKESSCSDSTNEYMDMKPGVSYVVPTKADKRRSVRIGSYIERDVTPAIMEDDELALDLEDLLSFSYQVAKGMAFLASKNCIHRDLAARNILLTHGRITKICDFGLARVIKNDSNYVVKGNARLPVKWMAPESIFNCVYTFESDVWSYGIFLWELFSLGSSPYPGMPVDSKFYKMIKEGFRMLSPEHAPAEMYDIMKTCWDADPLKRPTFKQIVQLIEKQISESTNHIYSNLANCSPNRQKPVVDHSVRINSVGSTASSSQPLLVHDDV

[8] = test system: ABL1 (human), P00519 [M351T]
[9] = test system: EGFR (human), P00533 [P753S; 747-752 del]
[10] = test system: ABL1 (human), P00519 [Q252H]
[11] = test system: KIT (human), P10721 [V559D/T670I]
Sequence of KIT (human), P10721 [V559D/T670I] (P10721 whole entry V559D/T670I, looked up): as the sequence (P10721 whole entry D816V, looked up) above, with V559D, T670I, V816D counted along it

[12] = test system: EGFR (human), P00533 [G719S]
[13] = test system: FLT3 (human), P36888 [K663Q]
[14] = test system: KIT (human), P10721 [V559D]
Sequence of KIT (human), P10721 [V559D] (P10721 whole entry V559D, looked up): as the sequence (P10721 whole entry D816V, looked up) above, with V559D, V816D counted along it

[15] = test system: EIF2AK4 KD2 (human), Q9P2K8 [S808G]
Sequence of EIF2AK4 KD2 (human), Q9P2K8 [S808G] (Q9P2K8 whole entry S808G, looked up): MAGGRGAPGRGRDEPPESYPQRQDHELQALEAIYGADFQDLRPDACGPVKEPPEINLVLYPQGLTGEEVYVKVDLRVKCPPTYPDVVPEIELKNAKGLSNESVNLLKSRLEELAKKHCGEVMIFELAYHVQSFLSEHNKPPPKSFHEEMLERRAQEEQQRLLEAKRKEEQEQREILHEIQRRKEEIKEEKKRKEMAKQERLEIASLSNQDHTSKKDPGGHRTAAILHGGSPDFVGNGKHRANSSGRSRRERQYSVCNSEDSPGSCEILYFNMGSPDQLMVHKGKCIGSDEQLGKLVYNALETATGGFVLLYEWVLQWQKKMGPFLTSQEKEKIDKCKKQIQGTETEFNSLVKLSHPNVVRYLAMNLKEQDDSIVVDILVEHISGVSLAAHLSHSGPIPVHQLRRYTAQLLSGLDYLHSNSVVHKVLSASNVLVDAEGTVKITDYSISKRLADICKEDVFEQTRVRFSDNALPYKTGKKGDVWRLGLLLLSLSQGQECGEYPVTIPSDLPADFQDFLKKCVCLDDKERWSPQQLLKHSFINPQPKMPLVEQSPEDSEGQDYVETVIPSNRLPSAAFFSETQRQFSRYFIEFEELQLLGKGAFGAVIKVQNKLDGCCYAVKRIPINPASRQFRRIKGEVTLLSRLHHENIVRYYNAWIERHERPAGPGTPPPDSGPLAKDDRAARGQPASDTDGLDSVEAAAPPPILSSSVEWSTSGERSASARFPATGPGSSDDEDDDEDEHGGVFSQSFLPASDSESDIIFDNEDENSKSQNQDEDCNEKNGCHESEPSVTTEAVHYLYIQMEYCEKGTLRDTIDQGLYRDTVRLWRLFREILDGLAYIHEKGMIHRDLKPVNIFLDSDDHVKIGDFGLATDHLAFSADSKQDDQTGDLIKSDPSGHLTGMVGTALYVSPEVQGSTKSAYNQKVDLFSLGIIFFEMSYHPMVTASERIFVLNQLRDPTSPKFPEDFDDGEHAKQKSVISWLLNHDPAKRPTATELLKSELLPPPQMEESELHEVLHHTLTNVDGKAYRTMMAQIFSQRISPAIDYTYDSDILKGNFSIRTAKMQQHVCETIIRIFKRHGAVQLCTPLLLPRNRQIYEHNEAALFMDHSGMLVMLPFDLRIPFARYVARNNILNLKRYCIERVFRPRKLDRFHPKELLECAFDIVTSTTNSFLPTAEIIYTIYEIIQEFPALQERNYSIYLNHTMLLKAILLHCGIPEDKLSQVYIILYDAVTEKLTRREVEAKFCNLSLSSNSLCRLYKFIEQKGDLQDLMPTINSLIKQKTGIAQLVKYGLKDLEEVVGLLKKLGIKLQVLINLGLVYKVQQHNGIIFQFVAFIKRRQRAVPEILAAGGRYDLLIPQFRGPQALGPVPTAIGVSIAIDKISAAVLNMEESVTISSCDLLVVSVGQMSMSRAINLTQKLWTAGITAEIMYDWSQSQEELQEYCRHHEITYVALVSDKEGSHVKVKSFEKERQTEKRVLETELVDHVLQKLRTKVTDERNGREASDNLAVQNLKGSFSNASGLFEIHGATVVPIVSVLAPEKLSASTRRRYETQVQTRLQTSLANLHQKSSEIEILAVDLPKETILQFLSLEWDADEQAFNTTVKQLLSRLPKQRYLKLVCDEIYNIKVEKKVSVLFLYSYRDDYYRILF

[16] = test system: FLT3 (human), P36888 [ITD]
[17] = test system: PIK3CA (human), P42336 [H1047Y]
Sequence of PIK3CA (human), P42336 [H1047Y] (P42336 whole entry H1047Y, looked up): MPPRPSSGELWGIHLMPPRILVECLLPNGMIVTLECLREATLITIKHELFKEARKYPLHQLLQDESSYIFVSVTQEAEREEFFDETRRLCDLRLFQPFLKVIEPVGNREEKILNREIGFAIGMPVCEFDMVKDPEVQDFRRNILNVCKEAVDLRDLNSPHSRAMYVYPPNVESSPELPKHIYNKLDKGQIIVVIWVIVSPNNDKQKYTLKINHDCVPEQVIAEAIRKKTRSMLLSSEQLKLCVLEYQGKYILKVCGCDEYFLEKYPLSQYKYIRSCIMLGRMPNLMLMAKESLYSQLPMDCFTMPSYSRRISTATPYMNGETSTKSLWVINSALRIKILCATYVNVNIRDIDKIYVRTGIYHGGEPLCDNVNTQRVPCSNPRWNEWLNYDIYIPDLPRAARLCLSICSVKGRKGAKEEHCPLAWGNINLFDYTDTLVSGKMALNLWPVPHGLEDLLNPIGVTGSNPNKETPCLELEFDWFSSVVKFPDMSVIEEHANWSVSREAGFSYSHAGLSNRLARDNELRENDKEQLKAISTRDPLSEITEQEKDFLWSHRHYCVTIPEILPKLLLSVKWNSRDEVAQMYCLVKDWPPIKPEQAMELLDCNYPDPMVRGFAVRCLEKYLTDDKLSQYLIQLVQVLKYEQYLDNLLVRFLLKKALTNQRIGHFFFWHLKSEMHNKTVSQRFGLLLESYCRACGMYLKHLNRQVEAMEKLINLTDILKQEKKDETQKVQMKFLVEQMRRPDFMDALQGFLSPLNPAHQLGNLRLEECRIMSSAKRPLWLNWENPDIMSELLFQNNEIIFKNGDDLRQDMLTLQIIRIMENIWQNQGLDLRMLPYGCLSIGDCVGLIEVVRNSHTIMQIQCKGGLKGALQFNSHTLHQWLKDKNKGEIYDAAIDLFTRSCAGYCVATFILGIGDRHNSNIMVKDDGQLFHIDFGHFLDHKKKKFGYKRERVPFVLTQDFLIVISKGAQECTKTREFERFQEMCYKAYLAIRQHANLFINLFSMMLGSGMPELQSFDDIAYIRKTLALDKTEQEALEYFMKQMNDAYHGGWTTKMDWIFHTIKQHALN

[18] = test system: PIK3CA (human), P42336 [I800L]
Sequence of PIK3CA (human), P42336 [I800L] (P42336 whole entry I800L, looked up): as the sequence (P42336 whole entry H1047Y, looked up) above, with I800L, Y1047H counted along it

[19] = test system: PIK3CA (human), P42336 [C420R]
Sequence of PIK3CA (human), P42336 [C420R] (P42336 whole entry C420R, looked up): as the sequence (P42336 whole entry H1047Y, looked up) above, with C420R, Y1047H counted along it

[20] = test system: PIK3CA (human), P42336 [Q546K]
Sequence of PIK3CA (human), P42336 [Q546K] (P42336 whole entry Q546K, looked up): as the sequence (P42336 whole entry H1047Y, looked up) above, with Q546K, Y1047H counted along it

[21] = test system: PIK3CA (human), P42336 [E545A]
Sequence of PIK3CA (human), P42336 [E545A] (P42336 whole entry E545A, looked up): as the sequence (P42336 whole entry H1047Y, looked up) above, with E545A, Y1047H counted along it

Sequence of PIK3CA (human), P42336 [E545K] (P42336 whole entry E545K, looked up): as the sequence (P42336 whole entry H1047Y, looked up) above, with E545K, Y1047H counted along it

Row | SMILES | kinase still bound, per cent of control [1] | kinase still bound, per cent of control [2] | kinase still bound, per cent of control [3] | kinase still bound, per cent of control [4] | kinase still bound, per cent of control [5] | kinase still bound, per cent of control [6] | kinase still bound, per cent of control [7] | kinase still bound, per cent of control [8] | kinase still bound, per cent of control [9] | kinase still bound, per cent of control [10] | kinase still bound, per cent of control [11] | kinase still bound, per cent of control [12] | kinase still bound, per cent of control [13] | kinase still bound, per cent of control [14] | kinase still bound, per cent of control [15] | kinase still bound, per cent of control [16] | kinase still bound, per cent of control [17] | kinase still bound, per cent of control [18] | kinase still bound, per cent of control [19] | kinase still bound, per cent of control [20] | further results
1 | C=CC(=O)Nc1ccc(CN(C(=O)Nc2c(Cl)c(OC)cc(OC)c2Cl)c2cc(Nc3ccc(N4CCN(C)CC4)cc3)ncn2)cc1 | 0.6% | 0.1% | 100% | 6.4% | 100% | 8.4% | 7.2% | 16% | 0.45% | 14% | 29% | 0.15% | 21% | 0.1% | 1.5% | 100% | – | – | – | – | –
2 | COc1cc(N2CCC(C(N)=O)CC2)ccc1Nc1nc(N)c(Cl)c(Nc2ccccc2S(=O)(=O)C(C)C)n1 | 0% | 0.3% | 100% | 100% | 100% | 13% | 24% | 100% | 2.9% | 100% | 100% | 21% | 100% | 100% | 100% | 20% | – | – | – | – | –
3 | COc1cc(C)c(Sc2cnc(NC(=O)c3ccc(CNC(C)C(C)C)cc3)s2)cc1C(=O)N1CCN(C(C)=O)CC1 (stereo unspecified) | 100% | 100% | 100% | 19% | 100% | 16% | 100% | 100% | 100% | 100% | 100% | 100% | 100% | 100% | 100% | 100% | – | – | – | – | –
4 | COc1ccc(N(C(=O)Oc2c(C)cccc2C)c2ccnc(Nc3ccc(N4CCN(C)CC4)cc3)n2)c(OC)c1 | 0% | 0.1% | 100% | – | 0.3% | 0.65% | 3.4% | 1.3% | 0% | – | 48% | 0.45% | 3.4% | 0.25% | 100% | 4.8% | 94% | 100% | 100% | 81% | kinase still bound, per cent of control [21]: 45%
5 | COc1ccc(N(C(=O)Oc2cc(C(=O)Nc3cccc(C(F)(F)F)c3)ccc2C)c2ccnc(Nc3ccc(N4CCN(C)CC4)cc3)n2)c(OC)c1 | 6.1% | 1% | 100% | 0.45% | 7.2% | 29% | 0.75% | 1.4% | 2.5% | 1.8% | 3.8% | 18% | – | 0.5% | 100% | 100% | – | – | – | – | –
6 | CCCS(=O)(=O)Nc1ccc(F)c(C(=O)c2c[nH]c3ncc(Cl)cc23)c1F | 93% | 34% | 100% | – | 46% | 28% | 49% | 46% | 85% | – | 46% | 72% | 17% | 0.05% | 0.95% | 68% | 90% | 91% | 100% | 86% | kinase still bound, per cent of control [21]: 92%
7 | CCN1CCN(C(=O)Cc2ccc(Nc3ncc(F)c(Nc4ccc(C(=O)Nc5ccccc5Cl)cc4)n3)cc2)CC1 | 48% | 52% | 97% | – | 6.2% | 0% | 0.75% | 19% | 38% | – | 21% | 78% | 0.4% | 0.5% | 0.4% | 0.1% | 62% | 88% | 57% | 23% | kinase still bound, per cent of control [21]: 25%
8 | COc1cc2c(Nc3ccc(NC(=O)c4ccccc4)cc3)ncnc2cc1OCCCN1CCOCC1 | 36% | 6.2% | 98% | – | 45% | 6% | 42% | 32% | 41% | – | 1.9% | 0.5% | 4% | 0% | 43% | 45% | 24% | 100% | 68% | 17% | kinase still bound, per cent of control [21]: 19%
9 | CCN(CC)CCCCNc1ncc2cc(-c3cc(OC)cc(OC)c3)c(NC(=O)NC(C)(C)C)nc2n1 | – | – | 100% | 100% | 100% | 100% | 100% | 100% | – | 100% | 100% | – | – | 100% | 100% | 100% | – | – | – | – | –
10 | CN(C)C/C=C/C(=O)Nc1ccc(C(=O)Nc2cccc(Nc3nccc(-c4cccnc4)n3)c2)cc1 | 100% | 56% | 100% | – | 29% | 31% | 30% | 29% | 96% | – | 10% | 97% | 34% | 0.5% | 97% | 30% | 100% | 60% | 100% | 100% | kinase still bound, per cent of control [21]: 100%
11 | Cc1n[nH]c2ccc(-c3cncc(OC[C@@H](N)Cc4c[nH]c5ccccc45)c3)cc12 | – | – | 100% | 100% | 100% | 0.1% | 1.1% | 100% | – | 100% | 100% | – | 3.8% | 100% | 100% | 0.1% | – | – | – | – | –
